Measured values reported in PubChem BioAssay AID743229 (The Scripps Research Institute Molecular Screening Center, 2013).

Each compound was assayed against Trace amine-associated receptor 1 (Homo sapiens) (UniProt Q96RJ0) (assay: TAAR1 activation concentration-response – cell-based, fluorescence, late stage, dose response (AID 743229)). Settings: TAAR1-expressing cells, fluorescence agonist read-out.
Trace amine-associated receptor 1 (Homo sapiens), sequence (Q96RJ0 whole entry, looked up, the tested form may be a part): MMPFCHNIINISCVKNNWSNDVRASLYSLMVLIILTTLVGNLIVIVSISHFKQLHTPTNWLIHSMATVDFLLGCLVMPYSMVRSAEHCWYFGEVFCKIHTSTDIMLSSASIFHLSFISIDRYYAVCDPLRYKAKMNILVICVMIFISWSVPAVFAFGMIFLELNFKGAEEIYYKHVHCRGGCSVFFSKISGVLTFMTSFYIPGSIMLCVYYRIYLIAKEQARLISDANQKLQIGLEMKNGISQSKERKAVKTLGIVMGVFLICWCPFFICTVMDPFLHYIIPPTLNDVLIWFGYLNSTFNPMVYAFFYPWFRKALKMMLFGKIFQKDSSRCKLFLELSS

SMILES	EC50
c1ccc(CCn2nnnc2C(c2cccs2)N2CCN(Cc3ccc4c(c3)OCO4)CC2)cc1 (centres undefined)	233 nM
O=C(CCN1CCc2ccccc2CC1)c1ccc2c(c1)OCCO2	340 nM
COc1cc(C(=O)CCN2CCC(c3ccccc3)C2)cc(OC)c1OC (centres undefined)	85.9 nM
O=C(C(=O)N1CCc2ccccc2C1)c1cn(CC(=O)N2CCCCC2)c2ccccc12	781 nM
NC(N)=NN=Cc1c(Cl)cccc1Cl	219 nM
Cc1cc(C)n(C(CC(=O)N2CCc3ccccc3C2)C(=O)O)n1 (centres undefined)	170 nM
CC1(C)CCCN(C(=O)c2coc(=O)c(Br)c2)C1	481 nM
c1ccc2c(c1)CCN(c1nc3cc4c(cc3s1)OCO4)C2	278 nM
O=C(CCCCl)N1CCc2[nH]c3ccccc3c2C1	101 nM
c1ccc2c3c([nH]c2c1)CCNC3	294 nM
CCOC(=O)C(NC(=O)CC)(N1CCc2ccccc2C1)C(F)(F)F (centres undefined)	42.4 nM
CCOC(=O)C(NC(C)=O)(N1CCc2ccccc2C1)C(F)(F)F (centres undefined)	75 nM
CC(=NCCc1ccccc1)C1CCOC1=O (centres undefined)	36.5 nM

Other lines, results leading:

EC50	SMILES
3310 nM	O=C(Nc1cccnc1)Nc1cccc(F)c1
108 nM	O=C(CCN1CCC(c2ccccc2)C1)c1cccs1 (centres undefined)
807 nM	O=C(Nc1ccccc1)Nc1ccncc1
257 nM	OCCNc1nc(Nc2cccc(O)c2)nc2ccccc12
804 nM	OCCNc1nc(Nc2ccc(O)cc2)nc2ccccc12
263 nM	O=C(CCN1CCC(c2ccccc2)C1)c1ccc2c(c1)OCCO2 (centres undefined)
1270 nM	Cc1ccc(NC(=O)CCN2CCc3ccccc3C2)cc1
182 nM	Cc1cc(N(C)C)nc(Nc2ccccc2)n1
866 nM	O=C(Nc1ccncc1)Nc1ccc(F)cc1
346 nM	Nc1nc(Nc2cccc(F)c2)nc2ccccc12
210 nM	Nc1nc(Nc2ccccc2)nc2ccccc12
